SMILES strings stand for the structures. ≈ marks a conversion by molar mass, not a printed value.

One assay has as its system Staphylococcus aureus (Isolate ID ATCC 29213). Put plainly: Bacterial assay: MIC by broth microdilution or agar dilution (CLSI), S. aureus ATCC 29213. The following applies: S. aureus (ATCC29213). It counts as cell-based. In outline:
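Activity is binned (A ≤0.25 μg/mL; B >0.25–1.0; C >1.0–16; D >16 μg/mL) from MICs determined per CLSI by broth microdilution or agar dilution, on S. aureus ATCC 29213 plus an FtsZ-G196A mutant strain.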
Consider `NC(=O)c1c(F)ccc(OC(COC(=O)NCc2ccccn2)c2nc(-c3ccc(C(F)(F)F)cc3)c(Br)o2)c1F` (stereo not drawn) [Compound 165, 2-(5-bromo-4-(4-(trifluoromethyl)phenyl)oazol-2-yl)-2-(3-carbamoyl-2,4-difluorophenoxy)ethyl (pyridin-2-ylmethyl)carbamate], for which the “S. aureus MIC (μg/mL) Activity Range” value was “B (activity>0.25 μg/mL-1.0 μg/mL)”.

Still in this assay, the particulars now being: Staphylococcus aureus, ATCC29213, read-out: S. aureus MIC (μg/mL) Activity Range, S. aureus (ATCC29213).
In the case of `COCCOCC(=O)NCC(Oc1ccc(F)c(C(N)=O)c1F)c1nc(-c2ccc(C(F)(F)F)cc2)c(Br)o1` (stereo not drawn) [Compound 301, 3-(1-(5-bromo-4-(4-(trifluoromethyl)phenyl)oxazol-2-yl)-2-(2-(2-methoxyethoxy)acetamido)ethoxy)-2,6-difluorobenzamide], the MIC lay within 1 to 16 µg/mL (≈ 1.61 to 25.7 µM).
As to `NC(=O)c1c(F)ccc(OC(CO)c2nc(-c3ccccc3F)c(Br)o2)c1F` (stereo not drawn) [Compound 229, 3-(1-(5-bromo-4-(2-fluorophenyl)oxazol-2-yl)-2-hydroxyethoxy)-2,6-difluorobenzamide], the MIC is greater than 16 µg/mL.
Consider `NC(=O)c1c(F)ccc(OC(COC(=O)NCCO)c2nc(-c3ccc(C(F)(F)F)cc3)c(Br)o2)c1F` (stereo not drawn) [Compound 163, 2-(5-bromo-4-(4-(trifluoromethyl)phenyl)oxazol-2-yl)-2-(3-carbamoyl-2,4-difluorophenoxy)ethyl (2-hydroxyethyl)carbamate], for which the MIC lay within 0.25 to 1 µg/mL (≈ 0.421 to 1.68 µM).
As to `NC(=O)c1c(F)ccc(OC(COC(=O)NCCC(=O)O)c2nc(-c3ccc(C(F)(F)F)cc3)c(Br)o2)c1F` (stereo not drawn) [Compound 143, 3-(((2-(5-bromo-4-(4-(trifluoromethyl)phenyl)oxazol-2-yl)-2-(3-carbamoyl-2,4-difluorophenoxy)ethoxy)carbonyl)amino)propanoic acid], the MIC was in the range of 1 to 16 µg/mL (≈ 1.61 to 25.7 µM).
Take `NC(=O)c1c(F)ccc(O[C@H](CO)c2nc(-c3ccc(F)cc3)c(Br)o2)c1F` [Compound 279B, (R)-3-(1-(5-bromo-4-(4-fluorophenyl)oxazol-2-yl)-2-hydroxyethoxy)-2,6-difluorobenzamide]: the MIC is 0.25 to 1 µg/mL (≈ 0.547 to 2.19 µM).
Turning to `COc1cc(Cl)c(Br)cc1-c1nc(C(CO)Oc2ccc(F)c(C(N)=O)c2F)oc1Br` (stereo not drawn) [Compound 232, 3-(1-(5-bromo-4-(5-bromo-4-chloro-2-methoxyphenyl)oxazol-2-yl)-2-hydroxyethoxy)-2,6-difluorobenzamide], the MIC fell in the range of 1 to 16 µg/mL (≈ 1.72 to 27.5 µM).
For `CCNC(=O)NCC(Oc1ccc(F)c(C(N)=O)c1F)c1nc(-c2ccc(C(F)(F)F)cc2)c(Br)o1` (stereo not drawn) [Compound 291, 3-(1-(5-bromo-4-(4-(trifluoromethyl)phenyl)oxazol-2-yl)-2-(3-ethylureido)ethoxy)-2,6-difluorobenzamide], the MIC was less than 0.25 µg/mL.
For `COc1ncc(-c2csc(C(C)Oc3ccc(F)c(C(N)=O)c3F)n2)s1` (stereo not drawn) [Compound 3], the MIC is less than 0.25 µg/mL.
For the molecule `CCOc1cnc2sc(C(C)Oc3ccc(F)c(C(N)=O)c3F)nc2c1` (stereo not drawn) [Compound 29, 3-(1-(6-ethoxythiazolo[5,4-b]pyridin-2-yl)ethoxy)-2,6-difluorobenzamide], the MIC fell in the range of 1 to 16 µg/mL (≈ 2.64 to 42.2 µM).
Turning to `NC(=O)c1c(F)ccc(OC(CO)c2nc(-c3ccc(F)cc3F)co2)c1F` (stereo not drawn) [Compound 226, 3-(1-(4-(2,4-difluorophenyl)oxazol-2-yl)-2-hydroxyethoxy)-2,6-difluorobenzamide], the MIC is greater than 16 µg/mL.
Consider `NC(=O)c1c(F)ccc(OC(CNC(=O)CCC(=O)O)c2nc(-c3ccc(C(F)(F)F)cc3)c(Br)o2)c1F` (stereo not drawn) [Compound 302, 4-((2-(5-bromo-4-(4-(trifluoromethyl)phenyl)oxazol-2-yl)-2-(3-carbamoyl-2,4-difluorophenoxy)ethyl)amino)-4-oxobutanoic acid], for which the MIC lay in the range of 1 to 16 µg/mL (≈ 1.65 to 26.4 µM).
As to `NC(=O)c1c(F)ccc(OC(C(N)=O)c2nc(-c3ccc(Cl)cc3)cs2)c1F` (stereo not drawn) [Compound 40, 3-(2-amino-1-(4-(4-chlorophenyl)thiazol-2-yl)-2-oxoethoxy)-2,6-difluorobenzamide], the MIC lay within 1 to 16 µg/mL (≈ 2.36 to 37.8 µM).
Take `CSc1oc(C(CO)Oc2ccc(F)c(C(N)=O)c2F)nc1-c1ccc(C(F)(F)F)cc1` (stereo not drawn) [Compound 271, 2,6-difluoro-3-(2-hydroxy-1-(5-(methylthio)-4-(4-(trifluoromethyl)phenyl)oxazol-2-yl)ethoxy)benzamide]: the MIC lay within 0.25 to 1 µg/mL (≈ 0.527 to 2.11 µM).
Still for that read-out and setting: as for `CN(C)C(=O)c1ccc(-c2nc(C(CO)Oc3ccc(F)c(C(N)=O)c3F)oc2Br)cc1` (stereo not drawn) [Compound 252, 4-(5-bromo-2-(1-(3-carbamoyl-2,4-difluorophenoxy)-2-hydroxyethyl)oxazol-4-yl)-N,N-dimethylbenzamide], the figure is greater than 16 µg/mL; as for `NC(=O)c1c(F)ccc(OC(COC(=O)Nc2cccnc2)c2nc(-c3ccc(C(F)(F)F)cc3)c(Br)o2)c1F` (stereo not drawn) [Compound 170, 2-(5-bromo-4-(4-(trifluoromethyl)phenyl)oxazol-2-yl)-2-(3-carbamoyl-2,4-difluorophenoxy)ethyl pyridin-3-ylcarbamate], 0.25 to 1 µg/mL (≈ 0.399 to 1.59 µM).
Consider `Cn1nccc1CNC(=O)OCC(Oc1ccc(F)c(C(N)=O)c1F)c1nc(-c2ccc(C(F)(F)F)cc2)c(Br)o1` (stereo not drawn) [Compound 194, 2-(5-bromo-4-(4-(trifluoromethyl)phenyl)oxazol-2-yl)-2-(3-carbamoyl-2,4-difluorophenoxy)ethyl ((1-methyl-1H-pyrazol-5-yl)methyl)carbamate], for which the MIC is less than 0.25 µg/mL.
Same read-out and setting: as for `NC(=O)c1c(F)ccc(OC(CO)c2nc(C3CCOCC3)c(Br)o2)c1F` (stereo not drawn) [Compound 187, 3-(1-(5-bromo-4-(tetrahydro-2H-pyran-4-yl)oxazol-2-yl)-2-hydroxyethoxy)-2,6-difluorobenzamide], the figure is greater than 16 µg/mL.
Take `C=CCOP(=O)(O)OCC(Oc1ccc(F)c(C(N)=O)c1F)c1nc(-c2ccc(C(F)(F)F)cc2)c(Br)o1` (stereo not drawn) [Compound 75, allyl (2-(5-bromo-4-(4-(trifluoromethyl)phenyl)oxazol-2-yl)-2-(3-carbamoyl-2,4-difluorophenoxy)ethyl) hydrogen phosphate]: the MIC was greater than 16 µg/mL.
As to `C=CCOP(=O)(OCC=C)OCC(Oc1ccc(F)c(C(N)=O)c1F)c1nc(-c2ccc(C(F)(F)F)cc2)c(Br)o1` (stereo not drawn) [Compound 71, diallyl (2-(5-bromo-4-(4-(trifluoromethyl)phenyl)oxazol-2-yl)-2-(3-carbamoyl-2,4-difluorophenoxy)ethyl) phosphate], the MIC is 0.25 to 1 µg/mL.
Take `NC(=O)c1c(F)ccc(O[C@H](CO)c2nc(-c3ccc(F)cc3)co2)c1F` [Compound 278B, (R)-2,6-difluoro-3-(1-(4-(4-fluorophenyl)oxazol-2-yl)-2-hydroxyethoxy)benzamide]: the MIC is greater than 16 µg/mL.
On the same count and under the same terms, to `NC(=O)c1c(F)ccc(O[C@H](CO)c2nc(-c3ccc(OC(F)F)cc3)co2)c1F` [Compound 274B, (R)-3-(1-(4-(4-(difluoromethoxy)phenyl)oxazol-2-yl)-2-hydroxyethoxy)-2,6-difluorobenzamide] belongs 1 to 16 µg/mL (≈ 2.35 to 37.5 µM); to `NC(=O)c1c(F)ccc(OC(COC(=O)NCc2cccnc2)c2nc(-c3ccc(C(F)(F)F)cc3)c(Br)o2)c1F` (stereo not drawn) [Compound 166, 2-(5-bromo-4-(4-(trifluoromethyl)phenyl)oxazol-2-yl)-2-(3-carbamoyl-2,4-difluorophenoxy)ethyl (pyridin-3-ylmethyl)carbamate], less than 0.25 µg/mL.
Regarding `CCCC(Oc1ccc(F)c(C(N)=O)c1F)c1nc(-c2ccc(Cl)cc2)c(Br)o1` (stereo not drawn) [Compound 23], the MIC fell in the range of 1 to 16 µg/mL (≈ 2.06 to 32.9 µM).
Same read-out and setting: as for `CC(=O)OCC(Oc1ccc(F)c(C(N)=O)c1F)c1nc(-c2ccc(C(F)(F)F)cc2)oc1Br` (stereo not drawn) [Compound 137, 2-(5-bromo-2-(4-(trifluoromethyl)phenyl)oxazol-4-yl)-2-(3-carbamoyl-2,4-difluorophenoxy)ethyl acetate], the figure is greater than 16 µg/mL; as for `NC(=O)c1c(F)ccc(OC(COC(=O)NCC(=O)O)c2nc(-c3ccc(C(F)(F)F)cc3)c(Br)o2)c1F` (stereo not drawn) [Compound 142, 2-(((2-(5-bromo-4-(4-(trifluoromethyl)phenyl)oxazol-2-yl)-2-(3-carbamoyl-2,4-difluorophenoxy)ethoxy)carbonyl)amino)acetic acid], greater than 16 µg/mL; as for `NC(=O)c1c(F)ccc(OC(COC(=O)Cn2cccc2)c2nc(-c3ccc(C(F)(F)F)cc3)c(Br)o2)c1F` (stereo not drawn) [Compound 68, 2-(5-bromo-4-(4-(trifluoromethyl)phenyl)oxazol-2-yl)-2-(3-carbamoyl-2,4-difluorophenoxy)ethyl 2-(1H-pyrrol-1-yl)acetate], less than 0.25 µg/mL.
For `NC(=O)c1c(F)ccc(O[C@H](CO)c2nc3cc(Cl)cnc3s2)c1F` [Compound 266B, (R)-3-(1-(6-chlorothiazolo[5,4-b]pyridin-2-yl)-2-hydroxyethoxy)-2,6-difluorobenzamide], the MIC lay in the range of 1 to 16 µg/mL (≈ 2.59 to 41.5 µM).
As to `NC(=O)c1c(F)ccc(OC(CO)c2csc(-c3ccc(C(F)(F)F)cc3)n2)c1F` (stereo not drawn) [Compound 126, 2,6-difluoro-3-(2-hydroxy-1-(2-(4-(trifluoromethyl)phenyl)thiazol-4-yl)ethoxy)benzamide], the MIC was 1 to 16 µg/mL (≈ 2.25 to 36 µM).
For the molecule `C=CCc1oc(C(COC(C)=O)Oc2ccc(F)c(C(N)=O)c2F)nc1-c1ccc(C(F)(F)F)cc1` (stereo not drawn) [Compound 63, 2-(5-allyl-4-(4-(trifluoromethyl)phenyl)oxazol-2-yl)-2-(3-carbamoyl-2,4-difluorophenoxy)ethyl acetate], the MIC lay within 1 to 16 µg/mL.
`NC(=O)c1c(F)ccc(O[C@H](CO)c2nc(-c3ccc(OC(F)F)cc3)c(Br)o2)c1F` [Compound 273B, (R)-3-(1-(5-bromo-4-(4-(difluoromethoxy)phenyl)oxazol-2-yl)-2-hydroxyethoxy)-2,6-difluorobenzamide]: the MIC is less than 0.25 µg/mL.
Still for that read-out and setting: to `NC(=O)c1c(F)ccc(OC(c2nc(-c3ccc(C(F)(F)F)cc3)c(Br)o2)C(O)CO)c1F` (stereo not drawn) [Compound 189, 3-(1-(5-bromo-4-(4-(trifluoromethyl)phenyl)oxazol-2-yl)-2,3-dihydroxypropoxy)-2,6-difluorobenzamide] belongs 1 to 16 µg/mL (≈ 1.86 to 29.8 µM); to `COCc1oc([C@@H](CO)Oc2ccc(F)c(C(N)=O)c2F)nc1-c1ccc(OC)cc1` [Compound 304B, (R)-2,6-difluoro-3-(2-hydroxy-1-(5-(methoxymethyl)-4-(4-methoxyphenyl)oxazol-2-yl)ethoxy)benzamide], 1 to 16 µg/mL (≈ 2.3 to 36.8 µM).
